From PMC11451967 (2024) come the findings set out here.

Common to all, as to experiment: fluorescence turn-on, 625 nm
Assay [1] has as its system NC (RNA, single strand) UUGUACUACACAAAAGUACUG
To be noted: BPC1 1 μM, oligonucleotide 4 μM; no fluorescence increase.

Assay [2] has as its system dsDNAmix (DNA, duplex) CGATAAGCGCTTATCGAGTCGACTCGATAAGCGCTTATCG
To be noted: BPC1 1 μM, oligonucleotide 4 μM; significant fluorescence enhancement.

Assay [3] relates to ssRNAmix (RNA, single strand) AUGUACCUAGUCUGACCUAG
To be noted: BPC1 1 μM, oligonucleotide 4 μM; no fluorescence increase.

Assay [4] deals with ssDNAmix (DNA, single strand) ATGCTCAGACTGTCAGAGTC
To be noted: BPC1 1 μM, oligonucleotide 4 μM; weak fluorescence enhancement.

Structures are written as SMILES.

`CC[n+]1c(/C=C/C=C2C=CN(c3ccccc3)C=C2)sc2ccccc21`: the binding entry in assay [1] was “no”; in assay [2] it was “yes”; in assay [3], “no”; in assay [4], “weak”.
